Here are results for two molecules from ChEMBL document CHEMBL3217482, “Synthesis and biological evaluation of novel 1-aryl, 5-(phenoxy-substituted)aryl-1,4-pentadien-3-one derivatives” (Medchemcomm, 2011).

The structures appear in SMILES notation.

Experiment [1] concerns PC-3. The experiment in a line: Antiproliferative against human PC3 cells assessed as growth inhibition at 10 uM after 72 hrs by MTT assay relative to control. It counts as functional. To be noted: PC-3, 72 h, read-out: GI. In general terms: Formazan colour is commonly taken as a measure of viable cells.
Experiment [2] relates to Bcap37. The experiment can be described thus: Antiproliferative against human Bcap37 cells assessed as growth inhibition at 1 uM after 72 hrs by MTT assay relative to control. It counts as functional. As to conditions: Bcap37, 72 h, read-out: GI.
Experiment [3] relates to PC-3. The experiment can be described thus: Antiproliferative against human PC3 cells assessed as growth inhibition at 1 uM after 72 hrs by MTT assay relative to control. It counts as functional. As to conditions: PC-3, 72 h, read-out: GI.
Experiment [4] can be described thus: Antiproliferative against human BGC823 cells assessed as growth inhibition at 1 uM after 72 hrs by MTT assay relative to control. In kind it is functional. To be noted: BGC-823, 72 h, read-out: GI.
Experiment [5] can be described thus: Antiproliferative against human BGC823 cells assessed as growth inhibition at 10 uM after 72 hrs by MTT assay relative to control. In kind it is functional. As to conditions: BGC-823, 72 h, read-out: GI.
Experiment [6] has as its system Bcap37. The experiment can be described thus: Antiproliferative against human Bcap37 cells assessed as growth inhibition at 10 uM after 72 hrs by MTT assay relative to control. It counts as functional. To be noted: Bcap37, 72 h, read-out: GI.
Experiment [7] is described as follows: Antiproliferative against human BGC823 cells assessed as growth inhibition after 72 hrs by MTT assay. In kind it is functional, cell-based. As to conditions: BGC-823, 72 h.
Experiment [8] relates to Bcap37. The experiment in a line: Antiproliferative against human Bcap37 cells assessed as growth inhibition after 72 hrs by MTT assay. It counts as functional, cell-based. As to conditions: Bcap37, 72 h.

For the molecule `CC[C@@]1(O)C(=O)OCc2c1cc1n(c2=O)Cc2cc3cc(O)ccc3nc2-1` [HYDROXYCAMPTOTHECIN], the inhibition of growth at 10 µM worked out at 37% with PC-3 [1], 26.5% in experiment [5] and 33.5% in the experiment on Bcap37 [6]. Moreover, the inhibition of growth at 1 µM in the experiment with Bcap37 [2] came out at 8.8%; in the experiment with PC-3 [3] it was 17.1%; in experiment [4], 7.3%.

The IC50 is the concentration that gives 50% inhibition. As to `COc1cccc2c1C(=O)c1c(O)c3c(c(O)c1C2=O)C[C@@](O)(C(=O)CO)C[C@@H]3O[C@H]1C[C@H](N)[C@H](O)[C@H](C)O1` [DOXORUBICIN], the values for the inhibition of growth at 10 µM (in the experiment on PC-3 [1]; in experiment [5]; with Bcap37 [6]) were 94.7%, 95.9% and 93.1%, respectively. Also, the half-maximal inhibitory concentration (IC50) in experiment [7] came out at 2600 nM; with Bcap37 [8] it was 2000 nM. The inhibition of growth at 1 µM with Bcap37 [2] was determined as 84.2%; with PC-3 [3] it was 88.2%; in experiment [4], 90.7%.
